Experimental findings from ChEMBL document CHEMBL5344477, “Discovery of benzoheterocyclic-substituted amide derivatives as apoptosis signal-regulating kinase 1 (ASK1) inhibitors” (RSC Med Chem, 2024) are described below.

The nature of series [1]: Apparent […] clearance in Sprague-Dawley rat at 1 mg/kg, iv measured upto 24 hrs by LC-MS/MS analysis. It counts as ADME, organism-based. Particulars: in vivo.
Series [2] can be described thus: Metabolic stability in human liver microsomes assessed as half life at 1 uM measured upto 90 mins by LC-MS/MS analysis. It counts as ADME, Microsome. A general note: Liver microsomes are vesicles of endoplasmic reticulum, rich in cytochrome P450 enzymes.
Series [3] is described as follows: Cmax in Sprague-Dawley rat at 5 mg/kg, po measured upto 24 hrs by LC-MS/MS analysis. It counts as ADME, organism-based. The arrangement: dose 5 mg/kg, time < 24 hrs, route po. Particulars: in vivo.
Series [4] can be described thus: Metabolic stability in human liver microsomes assessed as clearance at 1 uM measured upto 90 mins by LC-MS/MS analysis. It counts as ADME, Microsome. The conditions noted are these: read-out: CLH.
Series [5] can be described thus: Half life in Sprague-Dawley rat at 1 mg/kg, iv measured upto 24 hrs by LC-MS/MS analysis. It counts as ADME, organism-based. The conditions noted are these: in vivo.
The nature of series [6]: Volume of distribution at steady state in Sprague-Dawley rat at 1 mg/kg, iv measured upto 24 hrs by LC-MS/MS analysis. It counts as ADME, organism-based. Particulars: in vivo, read-out: Vdss.
Series [7] is described as follows: Cmax in Sprague-Dawley rat at 1 mg/kg, iv measured upto 24 hrs by LC-MS/MS analysis. It counts as ADME, organism-based. Set-up: dose 1 mg/kg, time < 24 hrs, route iv. The conditions noted are these: in vivo.
Series [8] can be described thus: Metabolic stability in rat liver microsomes assessed as half life at 1 uM measured upto 90 mins by LC-MS/MS analysis. It counts as ADME, Microsome.
Series [9] can be described thus: Metabolic stability in rat liver microsomes assessed as clearance at 1 uM measured upto 90 mins by LC-MS/MS analysis. It counts as ADME, Microsome. The conditions noted are these: read-out: CLH.
Series [10] can be described thus: AUClast in Sprague-Dawley rat at 1 mg/kg, iv measured upto 24 hrs by LC-MS/MS analysis. It counts as ADME, organism-based. The arrangement: dose 1 mg/kg, time < 24 hrs, route iv. The conditions noted are these: in vivo.
Series [11] is described as follows: Half life in Sprague-Dawley rat at 5 mg/kg, po measured upto 24 hrs by LC-MS/MS analysis. It counts as ADME, organism-based. The conditions noted are these: in vivo.
Series [12] in a line: AUClast in Sprague-Dawley rat at 5 mg/kg, po measured upto 24 hrs by LC-MS/MS analysis. Particulars: in vivo. It counts as ADME, organism-based. Set-up: dose 5 mg/kg, time < 24 hrs, route po.
Series [13] in a line: Oral bioavailability in Sprague-Dawley rat at 5 mg/kg measured upto 24 hrs by LC-MS/MS analysis. It counts as ADME, organism-based. The conditions noted are these: in vivo.

In general, CL/F refers to clearance divided by bioavailability, as obtained after extravascular dosing. In general, half-life refers to the time needed for the level to fall by half in the phase considered. The term Cmax denotes the highest concentration seen after dosing. By AUC(0-t) is commonly meant exposure summed from dosing to a finite time, without extrapolation to infinity. Consider `O=C1COc2cc(F)c(C(=O)Nc3cccc(-c4nncn4-c4ccccc4)n3)cc2N1`, for which the CL/F in series [1] was 3.33 mL/min/kg. Moreover, the figures for the half-life at 1 µM in series [2] and in series [8] were 2.55 h and 8.74 h, respectively. Further, the peak concentration (Cmax) in [3] was determined as 3000 ng/mL; in series [7] it was 1580 ng/mL. The CLint scaled at 1 µM in [4] is 11.4 mL/min/kg; in series [9], 4.7 mL/min/kg. In addition, the half-life was 3.15 h in series [5] and 2.95 h in series [11]. For the same molecule, the Vd in series [6] worked out at 0.68 L/kg. The area under the curve AUC(0-t) at 24 h in [10] was 5070 ng·h/mL; in series [12] it was 12100 ng·h/mL. Besides, the bioavailability in series [13] came out at 47.9%.

Consider `CC(C)n1cnnc1-c1cccc(NC(=O)c2cc3c(cc2F)OCc2cncn2-3)n1`, for which the CL/F in series [1] is 31.3 mL/min/kg. The figures for the half-life at 1 µM in series [2] and in [8] were 1.78 h and 0.187 h, respectively. Moreover, the maximum concentration (Cmax) in series [3] is 794 ng/mL; in [7], 793 ng/mL. Besides, the results for the CLint scaled at 1 µM in series [4] and in [9] were 16.3 mL/min/kg and 222 mL/min/kg, respectively. Further, the half-life in series [5] is 0.67 h; in series [11] it was 1.1 h. In [6], the Vd turned out to be 1.22 L/kg. Further, the results for the area under the curve AUC(0-t) at 24 h in [10] and in series [12] were 529 ng·h/mL and 2280 ng·h/mL, respectively. In addition, in [13], the bioavailability is 86.9%.

With `CC(C)n1cnnc1-c1cccc(NC(=O)c2cc3c(cc2F)OCc2cncn2-3)c1`, the CL/F in series [1] is 50.3 mL/min/kg. The half-life at 1 µM in series [2] is 0.458 h; in series [8], 0.11 h. For the same molecule, the Cmax in series [3] was determined as 445 ng/mL; in series [7] it was 235 ng/mL. Further, the CLint scaled at 1 µM in [4] is 63.3 mL/min/kg; in [9], 378 mL/min/kg. In addition, the values for the half-life in series [5] and in series [11] were 0.63 h and 1.13 h, respectively. The Vd in [6] was 2.61 L/kg. The AUC(0-t) at 24 h was 329 ng·h/mL in series [10] and 939 ng·h/mL in series [12]. The bioavailability in [13] worked out at 57.4%.

For the molecule `CC(C)n1cnnc1-c1cccc(NC(=O)c2cc3c(cc2F)CCC(=O)N3)n1`, the CL/F in series [1] was 13.2 mL/min/kg. Moreover, the half-life at 1 µM turned out to be 4.98 h in [2] and 3.12 h in series [8]. Moreover, the figures for the Cmax in series [3] and in series [7] were 334 ng/mL and 2080 ng/mL, respectively. For the same molecule, the CLint scaled at 1 µM in [4] was determined as 5.8 mL/min/kg; in series [9], 13.3 mL/min/kg. Further, the half-life in series [5] is 0.71 h; in series [11], 1.46 h. The Vd in [6] turned out to be 0.56 L/kg. The exposure AUC(0-t) at 24 h stood at 1260 ng·h/mL in [10] and 534 ng·h/mL in series [12]. For the same molecule, the bioavailability in [13] worked out at 8.8%.

With `CC(C)n1cnnc1-c1cccc(NC(=O)c2cc3c(cc2F)C(C)(C)CC(=O)N3C)n1`, the CL/F in [1] was 20.8 mL/min/kg. In addition, the half-life at 1 µM in [2] stood at 2.71 h; in series [8], 1.64 h. The Cmax was determined as 550 ng/mL in [3] and 418 ng/mL in [7]. For the same molecule, the CLint scaled at 1 µM in series [4] worked out at 10.7 mL/min/kg; in series [9] it was 25.3 mL/min/kg. Further, the half-life in series [5] is 1.12 h; in series [11], 5.02 h. Further, in series [6], the Vd was found to be 1.82 L/kg. The AUC(0-t) at 24 h worked out at 789 ng·h/mL in [10] and 3180 ng·h/mL in series [12]. Besides, the bioavailability in series [13] stood at 89.1%.

For `CC(C)n1cnnc1-c1cccc(NC(=O)c2cc3c(cc2F)C(C)(C)CC(=O)N3)n1`, the CL/F in [1] is 13.8 mL/min/kg. For the same molecule, the results for the Cmax in series [3] and in series [7] were 1420 ng/mL and 945 ng/mL, respectively. The half-life was 0.99 h in [5] and 2.03 h in series [11]. For the same molecule, the Vd in [6] is 1.07 L/kg. In addition, the AUC(0-t) at 24 h in [10] was found to be 1200 ng·h/mL; in series [12], 4560 ng·h/mL. Further, in series [13], the bioavailability was 75.9%.

As for `CC(C)n1cnnc1-c1cccc(NC(=O)c2cc3c(cc2F)CCC(=O)N3)c1`, the CL/F in [1] is 74.5 mL/min/kg. The half-life at 1 µM came out at 17.3 h in series [2] and 5.49 h in series [8]. Further, the Cmax in [3] worked out at 58 ng/mL; in series [7] it was 274 ng/mL. Moreover, the CLint scaled at 1 µM in [4] was determined as 1.7 mL/min/kg; in [9], 7.5 mL/min/kg. In addition, the half-life in series [5] was 0.68 h; in series [11] it was 1.79 h. In [6], the Vd stood at 3.41 L/kg. The AUC(0-t) at 24 h in series [10] stood at 222 ng·h/mL; in series [12] it was 157 ng·h/mL. Moreover, the bioavailability in [13] is 15.1%.

Consider `CC(CO)n1cnnc1-c1cccc(NC(=O)c2cc3c(cc2F)CCCC(=O)N3)n1` (stereo not drawn), for which the CL/F in series [1] is 154 mL/min/kg. The half-life at 1 µM was found to be 16.3 h in series [2] and 4.37 h in series [8]. The CLint scaled at 1 µM in series [4] was found to be 1.8 mL/min/kg; in [9] it was 9.5 mL/min/kg. In series [5], this molecule had a half-life of 0.28 h. Besides, the Vd in series [6] stood at 3.01 L/kg. Moreover, the highest level in [7] (Cmax) was 262 ng/mL. Besides, the AUC(0-t) at 24 h in series [10] stood at 108 ng·h/mL.

With `O=C(Nc1cccc(-c2nncn2CC2CC2)n1)c1cc2c(cc1F)OCc1cncn1-2`, in series [1], the apparent clearance (CL/F) is 23.7 mL/min/kg. For the same molecule, the half-life at 1 µM in series [2] was 1.2 h; in series [8] it was 0.275 h. Moreover, the values for the Cmax in series [3] and in series [7] were 3520 ng/mL and 804 ng/mL, respectively. The CLint scaled at 1 µM in series [4] worked out at 24.1 mL/min/kg; in series [9], 151 mL/min/kg. Moreover, the half-life in series [5] is 0.75 h; in series [11], 1.04 h. Also, in series [6], the Vd is 1.13 L/kg. Besides, the AUC(0-t) at 24 h was found to be 706 ng·h/mL in [10] and 7820 ng·h/mL in series [12].

On to `CC(C)n1cnnc1-c1cccc(NC(=O)c2cc3c(cc2F)CCCC(=O)N3C)n1`, for which, in [1], the CL/F was 43.7 mL/min/kg. The Cmax in [3] was found to be 582 ng/mL; in series [7], 597 ng/mL. Also, the results for the half-life in series [5] and in [11] were 0.73 h and 2.37 h, respectively. In addition, in series [6], the Vd worked out at 1.56 L/kg. Besides, the AUC(0-t) at 24 h stood at 381 ng·h/mL in series [10] and 2210 ng·h/mL in series [12]. In addition, the bioavailability in series [13] came to 116%.

`O=C(Nc1cccc(-c2nncn2C2CC2)n1)c1cc2c(cc1F)OCc1cncn1-2`: the half-life at 1 µM came out at 1.34 h in series [2] and 0.228 h in [8]. In addition, the CLint scaled at 1 µM worked out at 21.7 mL/min/kg in series [4] and 181 mL/min/kg in series [9].

As for `O=C(Nc1cccc(-c2nncn2-c2ccccc2)n1)c1cc2c(cc1F)OCc1cncn1-2`, the half-life at 1 µM in series [2] was found to be 1.1 h; in series [8] it was 0.258 h. Moreover, the CLint scaled at 1 µM in series [4] is 26.4 mL/min/kg; in series [9], 160 mL/min/kg.

Turning to `CC(C)N1C(=O)COc2cc(F)c(C(=O)Nc3cccc(-c4nncn4C(C)C)n3)cc21`, the half-life at 1 µM was determined as 0.917 h in series [2] and 0.297 h in series [8]. Further, the CLint scaled at 1 µM in [4] stood at 31.6 mL/min/kg; in series [9], 140 mL/min/kg.

Turning to `O=C(Nc1cccc(-c2nncn2C2CCCC2)n1)c1cc2c(cc1F)OCc1cncn1-2`, the results for the half-life at 1 µM in series [2] and in [8] were 0.35 h and 0.18 h, respectively. The figures for the CLint scaled at 1 µM in series [4] and in series [9] were 82.7 mL/min/kg and 230 mL/min/kg, respectively.

For the molecule `Cc1cc(F)c(C(=O)Nc2cccc(-c3nncn3C(C)C)n2)cc1-n1cnc(C2CC2)c1` [SELONSERTIB], the Cmax in series [3] is 6030 ng/mL; in series [7], 3030 ng/mL. In addition, the Vd in [6] was found to be 0.27 L/kg. The molecule also registered an AUC(0-t) at 24 h in [12] of 38300 ng·h/mL. In addition, in [13], the bioavailability was determined as 129%.
